The values that follow come from patent publication US6965048B2, “Hydroxyalkylamide derivatives” (Hoffmann-La Roche Inc., priority 2003, dated 2005).

For the compound `CN(CC[C@H]1CC[C@H](C(=O)N2CCC(C(N)=O)CC2)CC1)C(=O)Oc1ccc(Cl)cc1`, the melting point – broadly, the temperature of the solid-liquid transition – was 162 to 165 °C (dec.).
